Test results: PMC4352280, “Bioactivity guided fractionation and hypolipidemic property of a novel HMG-CoA reductase inhibitor from Ficus virens Ait” (Lipids in Health and Disease, 2015)

Molecular target: T1, HMG-CoA reductase (Homo sapiens, UniProt P04035)
T1 construct: gene HMGCR; catalytic domain of the human enzyme (recombinant GST fusion protein expressed in E. coli)
T1 sequence (P04035 426-888 limits assumed): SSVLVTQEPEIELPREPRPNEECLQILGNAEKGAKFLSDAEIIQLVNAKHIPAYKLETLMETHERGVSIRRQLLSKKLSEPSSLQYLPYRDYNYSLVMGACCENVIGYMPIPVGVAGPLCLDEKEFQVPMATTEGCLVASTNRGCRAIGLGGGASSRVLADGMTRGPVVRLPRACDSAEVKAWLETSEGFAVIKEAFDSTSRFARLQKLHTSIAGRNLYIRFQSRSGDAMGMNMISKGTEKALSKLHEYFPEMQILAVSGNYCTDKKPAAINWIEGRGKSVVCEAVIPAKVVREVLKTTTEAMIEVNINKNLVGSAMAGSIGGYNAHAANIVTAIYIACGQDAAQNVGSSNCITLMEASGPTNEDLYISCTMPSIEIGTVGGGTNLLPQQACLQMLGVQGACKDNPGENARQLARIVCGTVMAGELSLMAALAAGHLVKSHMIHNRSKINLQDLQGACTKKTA
Assay: spectrophotometric HMG-CoA reductase assay; Lineweaver-Burk and Dixon plots
Type: biochemical

IC50: 141 nM
Structure (SMILES): CCCCCCCCCCCCCCCCCCO[C@H]1O[C@H](CO[C@H]2O[C@H](CO)[C@@H](O)[C@H](O)[C@H]2O)[C@@H](O)[C@H](O)[C@H]1O [F18, n-Octadecanyl-O-α-D-glucopyranosyl(6′ → 1″)-O-α-D-glucopyranoside]
